{"source": "patent US20100081862A1", "about": "“Composition and method to modify sperm function and increase male gender ratio in mammals” (priority 2008, published 2010)", "origin": "cited, not measured here", "key": {"[1]": {"tested_on": "early-staged mouse embryos", "conditions": "living early-staged mouse embryos, transplanted to produce normal living offspring"}, "[2]": {"tested_on": "Hexose Monophosphate Shunt (HMS)", "conditions": "bovine oocytes"}}, "data": [{"smiles": "CCN(CC)c1cc2c(cc1C)Nc1ccc(N)cc1O2", "note": "[BCB, 2-methyl-3-diethylamino-7-amino phenoxazine]", "values": [{"measurement": "toxicity of BCB and its metabolites", "setting": "[1]", "result": "relatively non-toxic"}, {"measurement": "increase in oxidation of glucose through the HMS", "setting": "[2]", "result": 15, "unit": "fold"}, {"measurement": "increase in glucose metabolism through glycolysis", "setting": "[2]; compared with the increase through the HMS", "result": "somewhat less increase"}]}]}
